Measurements: patent US7592457B2 (Korea Research Institute of Chemical Technology, priority 2004, dated 2009)

Tests used:
D1 = D1 (Homo sapiens, UniProt P21728); assay: Radioligand binding for selectivity, D1; settings: read-out: Binding affinity (Inhibition rate % at 10 μM) D1
5-HT2c = target: T1, 5-HT2c (Homo sapiens, UniProt P28335); assay: Radioligand binding, 5-HT2c ([3H]Mesulergine); settings: read-out: Binding affinity (Inhibition rate % at 10 μM) 5HT2c
T1 construct: purchased Euroscreen/BioSignal Packard Inc
T1 sequence (P28335 33-458): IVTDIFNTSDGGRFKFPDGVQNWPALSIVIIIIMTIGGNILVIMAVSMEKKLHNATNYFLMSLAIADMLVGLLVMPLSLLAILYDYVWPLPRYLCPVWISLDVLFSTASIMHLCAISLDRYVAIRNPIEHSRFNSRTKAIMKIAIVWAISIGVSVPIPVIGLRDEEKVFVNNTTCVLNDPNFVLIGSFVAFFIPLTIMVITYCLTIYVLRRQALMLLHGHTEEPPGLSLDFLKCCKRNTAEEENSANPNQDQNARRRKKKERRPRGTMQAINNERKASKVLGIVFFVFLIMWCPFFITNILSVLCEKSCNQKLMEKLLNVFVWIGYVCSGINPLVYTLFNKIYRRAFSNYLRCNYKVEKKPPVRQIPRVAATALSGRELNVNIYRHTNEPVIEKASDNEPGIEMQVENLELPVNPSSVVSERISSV
Experimental: (§1) Radioligand bindings were performed according to the test method provided by the supplier of receptor membrane (Euroscreen/BioSignal Packard Inc.).

5-HT1a = target: T2, 5-HT1a (Homo sapiens, UniProt P08908); assay: Radioligand binding, 5-HT1a ([3H]8-OH-DPAT); settings: read-out: Binding affinity (Inhibition rate % at 10 μM) 5HT1a
T2 construct: purchased Euroscreen/BioSignal Packard Inc
T2 sequence (P08908 1-422): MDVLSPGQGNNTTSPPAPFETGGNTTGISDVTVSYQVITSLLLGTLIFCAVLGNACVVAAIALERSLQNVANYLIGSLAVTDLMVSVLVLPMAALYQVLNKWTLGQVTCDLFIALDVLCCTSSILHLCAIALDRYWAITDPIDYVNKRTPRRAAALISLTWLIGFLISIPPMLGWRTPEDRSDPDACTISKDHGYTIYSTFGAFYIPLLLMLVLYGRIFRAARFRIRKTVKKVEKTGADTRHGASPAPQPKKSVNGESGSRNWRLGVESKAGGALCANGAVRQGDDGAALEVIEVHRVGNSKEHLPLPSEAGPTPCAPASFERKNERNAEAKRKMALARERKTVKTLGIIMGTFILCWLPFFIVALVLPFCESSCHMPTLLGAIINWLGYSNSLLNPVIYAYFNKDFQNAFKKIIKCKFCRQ
Experimental: as §1

5-HT2a = target: T3, 5-HT2a (Homo sapiens, UniProt P28223); assay: Radioligand binding, 5-HT2a ([3H]Ketanserin); settings: read-out: Binding affinity (Inhibition rate % at 10 μM) 5HT2a
T3 construct: purchased Euroscreen/BioSignal Packard Inc
T3 sequence (P28223 whole entry): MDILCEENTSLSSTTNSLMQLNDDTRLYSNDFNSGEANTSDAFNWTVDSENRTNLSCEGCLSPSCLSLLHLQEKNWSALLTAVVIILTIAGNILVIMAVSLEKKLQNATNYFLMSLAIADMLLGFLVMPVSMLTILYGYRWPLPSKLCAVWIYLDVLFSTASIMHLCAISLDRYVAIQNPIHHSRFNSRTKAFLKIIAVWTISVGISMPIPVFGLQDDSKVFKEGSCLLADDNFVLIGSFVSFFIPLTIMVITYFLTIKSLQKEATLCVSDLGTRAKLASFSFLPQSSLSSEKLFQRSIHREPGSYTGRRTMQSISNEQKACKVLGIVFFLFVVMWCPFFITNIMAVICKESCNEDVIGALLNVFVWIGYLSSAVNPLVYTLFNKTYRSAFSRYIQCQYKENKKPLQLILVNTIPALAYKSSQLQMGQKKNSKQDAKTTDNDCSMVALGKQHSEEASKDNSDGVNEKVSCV
Experimental: as §1

hD4.2 receptor = target: T4, hD4.2 receptor (Homo sapiens, UniProt P21917, DEL265-296); assay: Radioligand binding, dopamine D4 ([3H]YM-09151-2); settings: read-out: Binding affinity (Inhibition rate % at 10 μM) D4
T4 construct: purchased BioSignal Packard Inc., Montreal, Canada
T4 sequence (P21917 with tags, fused parts or gaps DEL265-296): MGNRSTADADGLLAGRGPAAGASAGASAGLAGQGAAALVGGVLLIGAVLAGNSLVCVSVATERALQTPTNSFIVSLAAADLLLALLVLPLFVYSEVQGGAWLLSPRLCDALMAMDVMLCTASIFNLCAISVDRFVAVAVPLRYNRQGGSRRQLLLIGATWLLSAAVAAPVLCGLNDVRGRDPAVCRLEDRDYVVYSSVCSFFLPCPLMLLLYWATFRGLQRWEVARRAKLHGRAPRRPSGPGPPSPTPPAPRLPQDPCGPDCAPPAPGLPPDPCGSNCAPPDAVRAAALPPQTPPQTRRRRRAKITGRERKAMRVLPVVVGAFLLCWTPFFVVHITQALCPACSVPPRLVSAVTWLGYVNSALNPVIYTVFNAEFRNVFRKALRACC
Experimental: (§2) The radioligands used were [^3H] spiperone (for hD2L and hD3 receptors, 1 nM) and [^3H] YM-09151-2 (for hD4.2 receptor, 0.06 nM). Radioligand bindings were performed by the protocols provided by the supplier of receptor membranes (BioSignal Packard Inc., Montreal, Canada). Briefly, the buffer used in D2 or D3 receptor binding assay was 50 mM Tris-HCl (pH 7.4), 10 mM MgCl2, 1 mM EDTA, or 50 mM Tris-HCl (pH 7.4), 5 mM MgCl2, 5 mM EDTA, 5 mM KCl, 1.5 mM CaCl2, 120 mM NaCl, respectively. In [^3H] YM-09151-2 receptor binding assays, the buffer containing 50 mM Tris-HCl (pH 7.4), 5 mM MgCl2, 5 mM EDTA, 5 mM KCl and 1.5 mM CaCl2 was used. Nonspecific binding was determined with haloperidol (10 μM) or clozapine (10 μM) for D2 and D3, and D4 receptors, respectively. Competition binding studies were carried out with 7-8 concentrations of the test compound run in duplicate tubes, and isotherms from three assays were calculated by computerized nonlinear regression analysis (GraphPad Prism Program, San Diego, […]) to yield median inhibitory concentration (IC50) values.

hD2L receptor = target: T5, hD2L receptor (Homo sapiens, UniProt P14416); assay: Radioligand binding, dopamine D2 ([3H]spiperone); settings: read-out: Binding affinity (Inhibition rate % at 10 μM) D2
T5 construct: purchased BioSignal Packard Inc., Montreal, Canada
T5 sequence (P14416 whole entry): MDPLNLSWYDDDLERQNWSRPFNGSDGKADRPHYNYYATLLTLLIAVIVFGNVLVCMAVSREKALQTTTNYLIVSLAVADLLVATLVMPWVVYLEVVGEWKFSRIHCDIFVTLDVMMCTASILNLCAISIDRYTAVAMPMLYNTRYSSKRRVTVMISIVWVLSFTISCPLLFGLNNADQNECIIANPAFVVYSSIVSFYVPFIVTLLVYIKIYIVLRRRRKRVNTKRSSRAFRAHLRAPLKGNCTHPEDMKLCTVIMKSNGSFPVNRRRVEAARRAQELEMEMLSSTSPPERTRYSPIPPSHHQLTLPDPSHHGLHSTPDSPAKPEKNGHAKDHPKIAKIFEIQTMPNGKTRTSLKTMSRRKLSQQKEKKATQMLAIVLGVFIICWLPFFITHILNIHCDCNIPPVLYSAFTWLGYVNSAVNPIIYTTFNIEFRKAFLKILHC
Experimental: as §2

[1] = target: T6, human serotonin 5-HT6 receptor (Homo sapiens, UniProt P50406); assay: [3H]LSD binding at cloned 5-HT6 receptors; settings: for IC50: [3H]LSD 1.87 nM, cloned receptor membranes, 37° C., 60 min, read-out: IC50; for inhibition at 10 µM: read-out: Binding affinity (Inhibition rate % at 10 μM) 5HT6; for 5-HT6 affinity compared with known selective antagonists: in words
T6 construct: made in house; host or cells: Sf21 insect cells (pBacPAK8 baculovirus vector)
T6 sequence (P50406 whole entry): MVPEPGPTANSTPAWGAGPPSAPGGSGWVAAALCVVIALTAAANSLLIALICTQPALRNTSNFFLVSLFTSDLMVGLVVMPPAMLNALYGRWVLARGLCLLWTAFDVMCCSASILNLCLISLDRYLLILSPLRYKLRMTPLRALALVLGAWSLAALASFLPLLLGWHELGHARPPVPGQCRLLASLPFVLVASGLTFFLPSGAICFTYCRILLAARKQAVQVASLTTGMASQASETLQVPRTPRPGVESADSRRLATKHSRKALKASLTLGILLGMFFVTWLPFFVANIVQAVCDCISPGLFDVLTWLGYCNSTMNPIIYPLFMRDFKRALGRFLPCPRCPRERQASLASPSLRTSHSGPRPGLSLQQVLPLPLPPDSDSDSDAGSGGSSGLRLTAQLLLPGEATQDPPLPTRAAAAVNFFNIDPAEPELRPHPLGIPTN

5-HT7 = target: T7, 5-HT7 (Homo sapiens, UniProt P34969); assay: Radioligand binding, 5-HT7 ([3H]LSD); settings: read-out: Binding affinity (Inhibition rate % at 10 μM) 5HT7
T7 construct: purchased Euroscreen/BioSignal Packard Inc
T7 sequence (P34969 whole entry): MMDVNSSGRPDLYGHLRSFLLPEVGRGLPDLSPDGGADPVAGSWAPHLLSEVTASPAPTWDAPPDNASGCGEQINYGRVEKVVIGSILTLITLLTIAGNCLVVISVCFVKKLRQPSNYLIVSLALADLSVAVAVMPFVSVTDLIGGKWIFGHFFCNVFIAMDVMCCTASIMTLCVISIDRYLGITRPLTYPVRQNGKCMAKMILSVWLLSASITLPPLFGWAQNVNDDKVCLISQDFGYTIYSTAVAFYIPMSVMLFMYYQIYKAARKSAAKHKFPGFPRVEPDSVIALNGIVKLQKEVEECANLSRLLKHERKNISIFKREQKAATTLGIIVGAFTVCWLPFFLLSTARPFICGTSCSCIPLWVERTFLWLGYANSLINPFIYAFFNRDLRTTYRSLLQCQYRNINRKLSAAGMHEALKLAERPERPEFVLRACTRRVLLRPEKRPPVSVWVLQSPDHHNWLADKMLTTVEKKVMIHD
Experimental: as §1

hD3 receptor = target: T8, hD3 receptor (Homo sapiens, UniProt P35462); assay: Radioligand binding, dopamine D3 ([3H]spiperone); settings: read-out: Binding affinity (Inhibition rate % at 10 μM) D3
T8 construct: purchased BioSignal Packard Inc., Montreal, Canada
T8 sequence (P35462 whole entry): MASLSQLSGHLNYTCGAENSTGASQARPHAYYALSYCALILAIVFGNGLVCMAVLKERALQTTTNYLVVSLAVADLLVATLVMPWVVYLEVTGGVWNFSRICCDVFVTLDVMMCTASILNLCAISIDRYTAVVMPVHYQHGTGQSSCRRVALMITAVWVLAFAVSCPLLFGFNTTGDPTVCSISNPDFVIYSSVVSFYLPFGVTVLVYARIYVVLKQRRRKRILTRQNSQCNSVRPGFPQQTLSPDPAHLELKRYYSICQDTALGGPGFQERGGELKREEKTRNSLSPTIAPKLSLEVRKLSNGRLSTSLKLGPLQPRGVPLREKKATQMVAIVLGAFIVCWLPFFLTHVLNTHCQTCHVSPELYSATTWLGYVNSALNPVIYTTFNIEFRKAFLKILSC
Experimental: as §2

Chain of D1 (P21728 whole entry): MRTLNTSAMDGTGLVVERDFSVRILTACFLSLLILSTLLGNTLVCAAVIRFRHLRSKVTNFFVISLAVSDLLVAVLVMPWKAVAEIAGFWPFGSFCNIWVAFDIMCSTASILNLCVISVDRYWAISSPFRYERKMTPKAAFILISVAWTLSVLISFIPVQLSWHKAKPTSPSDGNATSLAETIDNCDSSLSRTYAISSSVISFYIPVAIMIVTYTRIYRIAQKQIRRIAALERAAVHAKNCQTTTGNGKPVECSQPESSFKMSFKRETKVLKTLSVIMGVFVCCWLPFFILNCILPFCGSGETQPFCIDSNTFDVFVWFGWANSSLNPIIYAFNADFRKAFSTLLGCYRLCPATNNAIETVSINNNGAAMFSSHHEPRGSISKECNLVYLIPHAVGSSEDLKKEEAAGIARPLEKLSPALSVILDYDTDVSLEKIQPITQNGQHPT

SMILES | inhibition at 10 µM (D1) [%] | inhibition at 10 µM (5-HT2c) [%] | inhibition at 10 µM (5-HT1a) [%] | inhibition at 10 µM (5-HT2a) [%] | inhibition at 10 µM (hD4.2 receptor) [%] | inhibition at 10 µM (hD2L receptor) [%] | melting point | IC50 [1] [nM] | inhibition at 10 µM [1] [%] | inhibition at 10 µM (5-HT7) [%] | inhibition at 10 µM (hD3 receptor) [%] | 5-HT6 affinity compared with known selective antagonists [1]
CC1(c2ccccc2)C(=O)Nc2cc(Cl)ccc2C1=O (stereo not drawn) [Example 3, 7-chloro-3-methyl-3-phenyl-1H-quinoline-2,4-dione] | 25.5 | 8.9 | 40.2 | 12 | 0 | 4.9 | 174 to 175 °C | 2470 | 69 | 7 | 10.9 | –
CC1(c2ccccc2)C(=O)Nc2cc(Br)cc(Br)c2C1=O (stereo not drawn) [Example 4, 5,7-dibromo-3-methyl-3-phenyl-1H-quinoline-2,4-dione] | 23.7 | 29.8 | 11.7 | 13.6 | 0 | 3 | 202 to 203 °C | 320 | 70.9 | 13 | 15.8 | –
COc1cc(Cl)cc2c1C(=O)C(C)(c1ccccc1)C(=O)N2 (stereo not drawn) [Example 6, 7-chloro-5-methoxy-3-methyl-3-phenyl-1H-quinoline-2,4-dione] | 31.1 | 13.5 | 65.8 | 10.6 | 1.6 | 29.7 | 267 to 269 °C | 428 | 68.3 | 19.5 | 23 | –
CC1(c2ccccc2)C(=O)Nc2cc(Cl)c(Cl)cc2C1=O (stereo not drawn) [Example 9, 6,7-dichloro-3-methyl-3-phenyl-1H-quinoline-2,4-dione] | 26.2 | 30.4 | 45.2 | 16.6 | 0 | 8.2 | 213 to 214 °C | 1060 | 71.2 | 10.8 | 10.8 | –
CN(C)c1cc(Cl)c2c(c1)NC(=O)C(C)(c1ccccc1)C2=O (stereo not drawn) [Example 11, 5-chloro-7-dimethylamino-3-methyl-3-phenyl-1H-quinoline-2,4-dione] | 40.5 | 20 | 49.5 | 30.4 | 0.4 | 19.3 | 224 to 226 °C | 1160 | 70.7 | 35.2 | 20.5 | –
COc1ccc(C2(C)C(=O)Nc3cc(Cl)cc(Cl)c3C2=O)cc1 (stereo not drawn) [Example 12, 5,7-dichloro-3-(4-methoxy-phenyl)-3-methyl-1H-quinoline-2,4-dione] | 15.7 | 5.7 | 40.2 | 8.5 | 0 | 16.3 | 210 to 212 °C | 917 | 73.3 | 23.1 | 24 | almost same affinities as or better affinities than known selective antagonists
CC1(c2ccc(Br)cc2)C(=O)Nc2cc(Cl)cc(Cl)c2C1=O (stereo not drawn) [Example 18, 3-(4-bromo-phenyl)-5,7-dichloro-3-methyl-1H-quinoline-2,4-dione] | 37.7 | 10.7 | 8 | 16.9 | 0 | 16 | 237 to 238 °C | 494 | 73.8 | 7.8 | 12.5 | –
CC1(c2cccc(OCc3ccccc3)c2)C(=O)Nc2cc(Cl)cc(Cl)c2C1=O (stereo not drawn) [Example 19, 3-(3-benzyloxy-phenyl)-5,7-dichloro-3-methyl-1H-quinoline-2,4-dione] | 92.6 | 0 | 88.8 | 67.3 | 0 | 37.8 | 201 to 203 °C | 134 | 74.9 | 69.5 | 37.4 | –
CC1(c2cccc(O)c2)C(=O)Nc2cc(Cl)cc(Cl)c2C1=O (stereo not drawn) [Example 20, 3-(3-hydroxy-phenyl)-5,7-dichloro-3-methyl-1H-quinoline-2,4-dione] | 64.6 | 4.7 | 0 | 46.1 | 0 | 10.9 | 248 °C (dec.) | 49 | 91.7 | 29.2 | 13.2 | almost same affinities as or better affinities than known selective antagonists
COc1ccc(C2(C)C(=O)Nc3cc(Cl)cc(Cl)c3C2=O)cc1[N+](=O)[O-] (stereo not drawn) [Example 21, 5,7-dichloro-3-(4-methoxy-3-nitro-phenyl)-3-methyl-1H-quinoline-2,4-dione] | 40.2 | 10.8 | 15.9 | 16.3 | 0 | 10.5 | 255 to 256 °C | 1230 | 73.7 | 0 | 16.4 | –
CC1(c2ccc(O)c([N+](=O)[O-])c2)C(=O)Nc2cc(Cl)cc(Cl)c2C1=O (stereo not drawn) [Example 22, 5,7-dichloro-3-(4-hydroxy-3-nitro-phenyl)-3-methyl-1H-quinoline-2,4-dione] | 35.7 | 2.5 | 68.7 | 50.9 | 0 | 11.2 | 239 to 240 °C | 1010 | 72.5 | 36.3 | 34 | –
